The values below come from PMC7126465 (Bioorganic & Medicinal Chemistry, 2017).

The subject of series [1] is human embryonic lung (HEL) cells. The note with it: read-out: Cytotoxicity CC50, ref Krecmerova et al. (Ref. [7]); cited from earlier work.
For another series, the system named is HCMV (Davis). The note with it: read-out: EC50 (HEL) HCMV (Davis); HEL cells; ref Krecmerova et al. (Ref. [7]); cited from earlier work.
For another series, the system named is Vaccinia virus. The note with it: read-out: EC50 (HEL) Vaccinia virus; HEL cells; ref Krecmerova et al. (Ref. [7]); cited from earlier work.
The next series deals with HSV-2 (G). Conditions: read-out: EC50 (HEL) HSV-2 (G); HEL cells; ref Krecmerova et al. (Ref. [7]); cited from earlier work.
A further series has as its system VZV TK− (07-1). The note with it: read-out: EC50 (HEL) VZV TK− (07-1); HEL cells; ref Krecmerova et al. (Ref. [7]); cited from earlier work.
The next series relates to HSV-1 (Kos). The note with it: read-out: EC50 (HEL) HSV-1 (Kos); HEL cells; ref Krecmerova et al. (Ref. [7]); cited from earlier work.
Another series deals with HCMV (AD-169). The note with it: read-out: EC50 (HEL) HCMV (AD-169); HEL cells; ref Krecmerova et al. (Ref. [7]); cited from earlier work.
Series [2] relates to herpesviruses (HSV, VZV, HCMV). Nature of the series: Anti-herpesvirus activity overall. It counts as cell-based. The note with it: HEL cells.
Series [3] has as its system human embryonic lung (HEL) cells. The note with it: ref Krecmerova et al. (Ref. [7]); cited from earlier work.
A further series has as its system VZV TK+ (Oka). The note with it: read-out: EC50 (HEL) VZV TK+ (Oka); HEL cells; ref Krecmerova et al. (Ref. [7]); cited from earlier work.

Regarding `Nc1ncn(CCOCP(=O)(O)O)c(=O)n1` [Compound 6, 1-[2-(phosphonomethoxy)ethyl]-5-azacytosine], the CC50 in series [1] was more than 200 µM. For the same compound, the EC50 is 147 µM with HCMV (Davis); more than 398 µM in the series on Vaccinia virus; 103 µM in the series with HSV-2 (G); 40 µM in the series with VZV TK− (07-1); 39 µM in the series on HSV-1 (Kos); 195 µM in the series on HCMV (AD-169). Also, the EC50 in the series with VZV TK+ (Oka) was 100 µM. Moreover, the “Anti-herpesvirus activity (in words)” value in series [2] is given as “marginal anti-herpesvirus activity”. In addition, in series [3], the “Cytotoxicity MCC” value is reported as more than 398 µM.

The CC50 is the concentration that lowers cell viability or growth by half. Broadly, the EC50 is the concentration at which the effect is half-maximal.
